# Test results: a melting point compilation (Tetko et al.)
row,Structure (SMILES),melting point
1,CS(=O)(=O)c1ccccc1NC(=O)CCl,118 to 120 °C
2,Cc1oc(-c2ccc(Cl)c(Cl)c2)nc1C(=O)O,264 to 266 °C
3,O=C1CCSc2c(F)ccc(F)c21,111 to 113 °C
4,CC(NS(=O)(=O)c1cccc(C(=O)O)c1)c1ccccc1 (stereo unspecified),149 to 151 °C
5,NC(=O)Nc1ccc(CC(=O)O)cc1,179 to 182 °C
6,COc1cccc(C=O)c1OC(F)F,30 to 32 °C
7,O=C(O)C1CCN(C(=O)c2cccc3ccccc23)CC1,190 to 192 °C
8,Cc1ccc(C(=O)O)cc1S(N)(=O)=O,275 to 277 °C
9,Cc1cnc(-c2cccc(N)c2)o1,107 to 109 °C
10,COc1ccc(/C=C/C(=O)O)cc1S(=O)(=O)N(C)C,229 to 231 °C
11,O=C(O)c1noc(-c2ccccc2)n1,111 to 113 °C
12,O=C(O)c1cc2cccc(Br)c2o1,256 to 258 °C
13,COC(=O)c1ccc(F)c(S(=O)(=O)Cl)c1,48 to 50 °C
14,N#Cc1csc(C=O)c1,84 to 86 °C
15,O=C1C=CC(=O)N1CCO,59 to 61 °C
16,COC(=O)c1c(S)nc(=O)[nH]c1C,225 to 227 °C
17,CCN(CC)S(=O)(=O)c1cccc(C(=O)NN)c1,133 to 135 °C
18,Clc1ccc2c(n1)CCC2,69 to 71 °C
19,Nc1cc(C(F)(F)F)ccc1-n1cccn1,40 to 48 °C
20,NCC(O)c1cccc(F)c1 (stereo unspecified),42 to 44 °C
21,CCOC(=O)c1cn2c(Br)ccc2cn1,138 to 140 °C
22,NS(=O)(=O)c1ccc(Sc2ccccc2C(=O)O)cc1,226 to 228 °C
23,CC(C)CNC(=O)c1ccc(N)cc1Cl,100 to 102 °C
24,COC(=O)c1ccc2c(c1)CCN2,74 to 76 °C

row,Structure (SMILES),melting point
1,O=C(NCc1ccncc1)c1ccc(O)c(Cl)c1,179 to 181 °C
2,O=C(Nc1ncccn1)C1CCNCC1,146 to 148 °C
3,O=C(O)c1cnn2c1CCCC2,214 to 216 °C
4,Nc1ccc(F)c(NS(=O)(=O)Cc2ccccc2)c1,172 to 174 °C
5,Cn1cc(CO)c(-c2ccccc2)n1,107 to 109 °C
6,Fc1cc2nc(S)[nH]c2cc1F,291 to 293 °C
7,O=C(O)c1ccc([N+](=O)[O-])c(Br)n1,179 to 181 °C
8,O=C(O)CCN1C(=O)CSc2ccccc21,144 to 146 °C
9,CCOC(=O)C1=NN(c2ccc(Cl)cc2)C(=O)C1,141 to 143 °C
10,CCOC(=O)c1c(C)oc(N)c1C#N,98 to 100 °C
11,Nc1ccc(N2CCOCC2)cn1,143 to 145 °C
12,CC(C)(C)C(=O)N1CCC(C(=O)O)CC1,115 to 127 °C
13,COc1ccnc(NN)n1,119 to 121 °C
14,CN(C)c1c(F)cc(C(=N)N)cc1F,95 to 97 °C
15,CC(C)(C)OC(=O)NCC1CCCCS1(=O)=O (stereo unspecified),97 to 99 °C
16,O=C(O)c1ccc(I)c(Cl)c1,218 to 220 °C
17,CCCCOc1ccc(-c2nnc(N)[nH]2)cc1,200 to 202 °C
18,CC(C)(Cc1ccccc1)C(=O)O,49 to 51 °C
19,Cc1cc(C)c2c(N)c(C(=O)N3CCOCC3)sc2n1,147 to 149 °C
20,O=C(CCl)N1CCc2cc(S(=O)(=O)N3CCCCC3)ccc21,185 to 187 °C
21,O=C(CCl)NC(c1ccc(F)cc1)c1cccs1 (stereo unspecified),124 to 126 °C
22,Cc1ccc(C(=O)O)cc1NC(=O)c1ccccc1F,268 to 270 °C
23,O=[N+]([O-])c1cccc2ncnc(O)c12,239 to 241 °C
24,CC(C)(C)OC(=O)N1C2CCC1CC(CC(=O)O)C2 (stereo unspecified),104 to 106 °C

row,Structure (SMILES),melting point
1,COCc1c(C(=O)O)sc2ccccc12,159 to 161 °C
2,O=C(NCc1cccc(Br)c1)NC1(C(=O)O)CCCC1,170 to 172 °C
3,Cc1cc2n(n1)CC(C(F)(F)F)CN2 (stereo unspecified),194 to 196 °C
4,NC(=O)N1CCc2cc(S(=O)(=O)F)ccc21,218 to 220 °C
5,Nc1cc(Cl)cc([N+](=O)[O-])c1O,152 to 154 °C
6,COc1ccc(NS(C)(=O)=O)c(N)c1,144 to 146 °C
7,CC(Nc1nc2ccccc2s1)C(=O)NN (stereo unspecified),174 to 176 °C
8,O=C1CCC(=O)N1CC1CO1 (stereo unspecified),61 to 63 °C
9,CC(N)c1nn[nH]n1 (stereo unspecified),263 to 265 °C
10,Cc1ccc(S(=O)(=O)N(C)c2ccc(C(=O)O)cc2)cc1,188 to 190 °C
11,COc1ccc(CC(N)c2ccc(OC)cc2)cc1 (stereo unspecified),175 to 177 °C
12,Cc1ccn2c(C(=O)O)cnc2c1,159 to 161 °C
13,Cc1cc(C)c2c(C)c(C(=O)O)sc2n1,278 to 280 °C
14,CCS(=O)(=O)c1ccccc1N1CCC(N)CC1,119 to 121 °C
15,Clc1ccc(CNC2=NCCS2)cc1,106 to 108 °C
16,N#C/C=C/c1ccc(Cl)cc1,45 to 47 °C
17,O=C(O)C=Cc1ccc2ccc(Cl)cc2n1,226 to 228 °C
18,COc1ccc(NC(=O)c2ccc(C(=O)O)s2)cc1,247 to 249 °C
19,CCn1c(=O)[nH]c2cc(C(=O)O)ccc2c1=O,347 to 349 °C
20,O=C(O)C1(c2ccc(F)cc2)CCC1,67 to 69 °C
21,COc1ccc(C)cc1NC(=O)C1CCCN1 (stereo unspecified),103 to 105 °C
22,Cc1ccc(-c2n[nH]cc2Br)cc1,104 to 106 °C
23,Cc1ccc(C)c(OCC(=O)NN)c1,153 to 155 °C
